Test results as given in publication PMC7010297, “How the initiating ribosome copes with ppGpp to translate mRNAs” (PLoS Biology, 2020).
Values joined by “and” are separate entries in the source; they are usually repeats but may differ in a detail not shown here. Equal values may be shown once.

Target: T1, IF2-bound 30S IC (Escherichia coli, UniProt P0A705)
T1 construct: 6xHis (N); made in house
Assay: 30S IC formation by MST, guanosine nucleotide titration;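 for MST Average: lower thermophoresis signal means Bpy-tRNAi dissociation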;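 for MST Replicates (a.u.): lower thermophoresis signal means Bpy-tRNAi dissociation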
Type: binding
Settings: for Kd: KD of GTP for the 30S IC
Excerpt: To monitor the interaction of initiator tRNA and 30S ribosomal subunits, we used Microscale Thermophoresis (MST) with a fluorescently labelled initiator tRNA (Bpy-tRNAi) (Fig 1B). MST allows to measure fluorescence in a constrained space. Changes on the readout derive from molecular drifts resulting from small thermal equilibrium perturbations. Upon equilibrium perturbations, the patterns of Bpy-tRNAi migration away from the observation space are related to bound and unbound states (Fig 1B). […] On the contrary, a decrease in thermophoresis indicated the dissociation of Bpy-tRNAi. The relation between fluorescence measured at both equilibriums (Ff to Fi, after and prior to the perturbation, respectively) as a function of ligand concentration allowed to determine dissociation constants of the interaction (Fig 1C).
Continuous lines indicate nonlinear regression fittings with a quadratic equation. Three measurements were performed; mean and standard deviation are plotted (S1 Data). (B) as (A) to measure the concentration dependence for each tested guanosine nucleotide at constant IF2 (1 μM). […] Continuous lines show best fits using exponential functions. (D) Formation of 70S IC as measured by Bpy-tRNAi accommodation in the P site of the ribosome; 0.1 μM 30S ICs were formed with Bpy-tRNAi and rapidly mixed with 0.3 μM 50S subunits on a stopped-flow apparatus as described in [14]. Colors are as in (C). Continuous lines show best fits using an exponential function for a single reaction step. Each stopped-flow trace results from the mean of 5 to 7 replicates.
MST was calculated from the respective fluorescence time dependencies (S3 Fig). […] Symbols as in (B). […] Continuous lines indicate nonlinear regression fittings with quadratic (B and E) or same-site competition (G) functions. Three measurements were performed; mean and standard deviations are plotted (S1 Data).

T1 sequence (P0A705 whole entry, looked up): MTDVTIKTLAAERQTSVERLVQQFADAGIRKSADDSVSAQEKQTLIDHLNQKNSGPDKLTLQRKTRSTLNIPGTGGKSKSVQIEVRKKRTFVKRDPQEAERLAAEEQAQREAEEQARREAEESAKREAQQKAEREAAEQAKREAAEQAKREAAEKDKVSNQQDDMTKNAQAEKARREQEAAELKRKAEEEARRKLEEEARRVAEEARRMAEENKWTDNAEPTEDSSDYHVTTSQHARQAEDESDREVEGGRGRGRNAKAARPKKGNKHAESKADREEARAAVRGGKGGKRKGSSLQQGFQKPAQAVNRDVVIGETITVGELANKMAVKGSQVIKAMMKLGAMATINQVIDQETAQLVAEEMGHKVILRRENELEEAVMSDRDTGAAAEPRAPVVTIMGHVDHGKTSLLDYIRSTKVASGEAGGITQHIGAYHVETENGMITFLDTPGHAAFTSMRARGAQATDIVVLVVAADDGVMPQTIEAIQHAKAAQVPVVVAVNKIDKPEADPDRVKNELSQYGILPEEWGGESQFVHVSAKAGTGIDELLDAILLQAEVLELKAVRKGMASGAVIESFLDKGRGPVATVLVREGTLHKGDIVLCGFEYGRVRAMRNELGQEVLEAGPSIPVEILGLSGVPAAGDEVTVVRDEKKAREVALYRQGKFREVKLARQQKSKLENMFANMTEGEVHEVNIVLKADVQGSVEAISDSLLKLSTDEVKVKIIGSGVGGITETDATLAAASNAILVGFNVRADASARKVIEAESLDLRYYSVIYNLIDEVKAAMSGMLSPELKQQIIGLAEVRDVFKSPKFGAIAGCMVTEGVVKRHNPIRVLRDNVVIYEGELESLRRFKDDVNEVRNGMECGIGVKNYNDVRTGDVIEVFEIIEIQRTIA

Nc1nc2c(ncn2[C@@H]2O[C@H](COP(=O)(O)OP(=O)(O)OP(=O)(O)O)[C@@H](O)[C@H]2O)c(=O)[nH]1 [GTP, guanosine triphosphate]
MST Average (Fig 2B, nucleotide 0.005 µM): 931.90 a.u. | MST Replicates (a.u.) (Fig 2B, nucleotide 0.005 µM, constant IF2 (1 μM)): 929.16 a.u. and 932.86 a.u. and 933.70 a.u. | MST Average (Fig 2B, nucleotide 0.01 µM): 935.48 a.u. | MST Replicates (a.u.) (Fig 2B, nucleotide 0.01 µM): 935.39 a.u. and 935.49 a.u. and 935.55 a.u. | MST Average (Fig 2B, nucleotide 0.02 µM): 931.90 a.u. | MST Replicates (a.u.) (Fig 2B, nucleotide 0.02 µM): 930.17 a.u. and 932.09 a.u. and 933.42 a.u. | MST Average (Fig 2B, nucleotide 0.04 µM): 934.94 a.u. | MST Replicates (a.u.) (Fig 2B, nucleotide 0.04 µM): 935.42 a.u. and 934.45 a.u. and 934.96 a.u. | MST Average (Fig 2B, nucleotide 0.08 µM): 940.63 a.u. | MST Replicates (a.u.) (Fig 2B, nucleotide 0.08 µM): 937.42 a.u. and 941.79 a.u. and 942.68 a.u. | MST Average (Fig 2B, nucleotide 0.16 µM): 949.92 a.u. | MST Replicates (a.u.) (Fig 2B, nucleotide 0.16 µM): 950.95 a.u. and 949.65 a.u. and 949.17 a.u. | MST Average (Fig 2B, nucleotide 0.31 µM): 960.63 a.u. | MST Replicates (a.u.) (Fig 2B, nucleotide 0.31 µM): 959.49 a.u. and 961.54 a.u. and 960.87 a.u. | MST Average (Fig 2B, nucleotide 0.63 µM): 975.44 a.u. | MST Replicates (a.u.) (Fig 2B, nucleotide 0.63 µM): 975.52 a.u. and 975.43 a.u. and 975.39 a.u. | MST Average (Fig 2B, nucleotide 1.25 µM): 984.37 a.u. | MST Replicates (a.u.) (Fig 2B, nucleotide 1.25 µM): 979.99 a.u. and 986.37 a.u. and 986.76 a.u. | MST Average (Fig 2B, nucleotide 2.50 µM): 1006.59 a.u. | MST Replicates (a.u.) (Fig 2B, nucleotide 2.50 µM): 1003.01 a.u. and 1008.37 a.u. and 1008.39 a.u. | MST Average (Fig 2B, nucleotide 5.00 µM): 1020.42 a.u. | MST Replicates (a.u.) (Fig 2B, nucleotide 5.00 µM): 1016.52 a.u. and 1022.52 a.u. and 1022.21 a.u. | MST Average (Fig 2B, nucleotide 10.00 µM): 1023.06 a.u. | MST Replicates (a.u.) (Fig 2B, nucleotide 10.00 µM): 1019.11 a.u. and 1024.56 a.u. and 1025.50 a.u. | MST Average (Fig 2B, nucleotide 20.00 µM): 1004.40 a.u. | MST Replicates (a.u.) (Fig 2B, nucleotide 20.00 µM): 999.60 a.u. and 1006.70 a.u. and 1006.89 a.u. | Kd (30S IC programmed with mInfA): 1.9 ± 0.2 µM | Kd (30S IC programmed with mTufA): 0.28 ± 0.04 µM | MST Average (mInfA, GTP 0.061 μM): 967.92 a.u. | MST Replicates (a.u.) (mInfA, GTP 0.061 μM): 966.87 a.u. and 968.59 a.u. and 968.30 a.u. | MST Average (mInfA, GTP 0.122 μM): 967.19 a.u. | MST Replicates (a.u.) (mInfA, GTP 0.122 μM): 972.17 a.u. and 974.24 a.u. and 955.18 a.u. | MST Average (mInfA, GTP 0.244 μM): 974.83 a.u. | MST Replicates (a.u.) (mInfA, GTP 0.244 μM): 973.77 a.u. and 975.34 a.u. and 975.39 a.u. | MST Average (mInfA, GTP 1.953 μM): 1006.13 a.u. | MST Average (mInfA, GTP 3.906 μM): 1021.73 a.u. | MST Replicates (a.u.) (mInfA, GTP 3.906 μM): 1021.53 a.u. and 1022.43 a.u. and 1021.24 a.u. | MST Average (mInfA, GTP 7.812 μM): 1043.12 a.u. | MST Replicates (a.u.) (mInfA, GTP 7.812 μM): 1042.43 a.u. and 1043.93 a.u. and 1042.99 a.u. | MST Average (mInfA, GTP 15.625 μM): 1059.58 a.u. | MST Replicates (a.u.) (mInfA, GTP 15.625 μM): 1058.78 a.u. and 1060.65 a.u. and 1059.32 a.u. | MST Average (mInfA, GTP 31.25 μM): 1066.52 a.u. | MST Replicates (a.u.) (mInfA, GTP 31.25 μM): 1066.71 a.u. and 1066.40 a.u. and 1066.45 a.u. | MST Average (mMF1, GTP 0.061 μM): 955.96 a.u. | MST Replicates (a.u.) (mMF1, GTP 0.061 μM): 954.37 a.u. and 956.60 a.u. and 956.92 a.u. | MST Average (mMF1, GTP 0.122 μM): 960.57 a.u. | MST Replicates (a.u.) (mMF1, GTP 0.122 μM): 957.75 a.u. and 961.91 a.u. and 962.05 a.u.
